Assay results taken from PubChem BioAssay AID1035470 (Broad Institute, 2014).
Records with an inconclusive call do not appear. Active and inactive are the calls of the source.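 Rule for the calls: active = compound lowering the normal-ribosome reporter at least twice as much as the humanized-ribosome reporter, growth loss under a set limit; inconclusive = no clear call, values can overlap the other calls; inactive = the rest.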

Tested on: E. coli WT-GFP vs G2058-humanized RFP, fluorescence, 24 h
Assay: growth inhibition of wild-type GFP E. coli versus G2058-humanized strain, dose response, G2058 mutant RFP vs wild-type GFP, cherry-pick, two tests (AID 1035470)
[1] = E. coli WT-GFP vs G2058-humanized RFP mixed culture, total growth OD600, 24 h
[2] = measured here: G2058 humanized mutant RFP growth

For `CCCCNC(=O)c1onc(CSc2cc(C)cc(C)c2)c1C(=O)O`, the AC50 was > 100 µM (inactive) and the AC50 [1] was 37.3 µM.

In the case of `Cc1ccc(S(=O)(=O)Nc2ccccc2CNc2cccc(C)n2)cc1`, the AC50 was > 100 µM (inactive) and the AC50 [1] was greater than 100 µM.

`C[C@@H]1CN([C@@H](C)CO)C(=O)CCCn2nncc2CO[C@H]1CN(C)C(=O)Nc1cccc(C(F)(F)F)c1` gave an AC50 [1] greater than 100 µM.

For `COc1cccc(NC(=O)c2ccc(NCCCN3CCC(C)CC3)c([N+](=O)[O-])c2)c1`, the AC50 [2] was 28.4 µM.

`Cc1ccc(NC(=O)c2ccc([N+](=O)[O-])o2)c(C)c1` was tested, and the AC50 was > 100 µM (inactive).

In the case of `CCOc1ccc2nc(N(CCN(C)C)C(=O)c3ccc4ccccc4c3)sc2c1`, the AC50 was > 100 µM (inactive).

Work on `Cc1ccc(-c2nc(CN3CCCCC3c3cccc(F)c3)c(C)o2)o1` (stereo not given) yielded an AC50 [1] greater than 100 µM.

For `CC(C)(C)CC(=O)Nc1ccccc1N1CCN(c2ccccc2)CC1`, the AC50 was > 100 µM (inactive).

For `CSc1nc2ccc(NS(=O)(=O)c3ccc([N+](=O)[O-])cc3)cc2s1`, the AC50 was > 100 µM (inactive), the AC50 [1] was greater than 100 µM and the AC50 [2] was greater than 100 µM.

`Brc1ccccc1Cn1c(-c2cncs2)nc2ccccc21` was tested, and the AC50 was > 100 µM (inactive), the AC50 [1] was greater than 100 µM and the AC50 [2] was greater than 100 µM.

In the case of `COc1cc(OC)cc(C(=O)Nc2ccc(S(=O)(=O)Nc3cnc4ccccc4n3)cc2)c1`, the AC50 was > 100 µM (inactive).

With `Cc1onc(-c2ccccc2Cl)c1C(=O)OCC(=O)c1ccccc1` the AC50 was > 100 µM (inactive).

In the case of `O=C(CCCn1c(=S)[nH]c2ccsc2c1=O)Nc1ccc2c(c1)OCCO2`, the AC50 was > 100 µM (inactive).

In the case of `CN(CCOc1ccccc1)C(=O)c1ccc(OC2CCN(C(=O)C3CC3)CC2)cc1`, the AC50 was > 100 µM (inactive) and the AC50 [1] was greater than 100 µM.

For `COc1ccc(C(=O)Nc2ccc3nc(C)sc3c2)cc1OC`, the AC50 was > 100 µM (inactive).

`Cn1cc(CN2CCCC(C(=O)Nc3cccc(-c4cc5ccccc5[nH]4)c3)C2)cn1` (stereo not given) was tested, and the AC50 was > 100 µM (inactive).

In the case of `O=C(COC(=O)CCSc1ccc(F)cc1)NCc1ccc(F)cc1`, the AC50 was > 100 µM (inactive) and the AC50 [1] was greater than 100 µM.

`COc1ccc(-c2noc(=O)n2Cc2ccccc2Cl)cc1` gave an AC50 [1] greater than 100 µM.

With `O=C(Nc1ccccc1Cl)c1ccc2c(c1)N(Cc1ccc(F)cc1)C(=O)CS2=O` (stereo not given) the AC50 was > 100 µM (inactive).

With `CC(C)C[C@H]1COc2cc(Br)ccc2S(=O)(=O)N1` the AC50 was > 100 µM (inactive), the AC50 [1] was greater than 100 µM and the AC50 [2] was greater than 100 µM.

With `CC[N+](CC)(CC#Cc1ccccc1)CC#Cc1ccccc1` the AC50 was > 100 µM (inactive) and the AC50 [1] was greater than 100 µM.

With `COc1ccc(NC(=O)Nc2cccc3c2O[C@H](CN(C)S(=O)(=O)c2ccc(Cl)cc2)[C@H](C)CN([C@H](C)CO)C3=O)cc1` the AC50 was > 100 µM (inactive).

In the case of `CC1Cc2ccccc2N1C(=O)CN1C(=O)NC(C)(CCc2ccccc2)C1=O` (stereo not given), the AC50 [1] was greater than 100 µM.

With `Cc1ccc(S(=O)(=O)N2CC(=O)Nc3ccccc32)cc1C` the AC50 was > 100 µM (inactive) and the AC50 [1] was greater than 100 µM.

`O=C(COC(=O)C1CC2C=CC1C2)NCCc1ccccc1` (stereo not given) was tested, and the AC50 [1] was greater than 100 µM.

With `CCN(CC)C(=O)c1sc2nc(-c3ccccc3)ccc2c1N` the AC50 was > 100 µM (inactive) and the AC50 [2] was greater than 100 µM.

In the case of `COc1cc(OC)cc(C(=O)Nc2ccc(C(=O)Nc3ccccc3OC)cc2)c1`, the AC50 was > 100 µM (inactive) and the AC50 [1] was greater than 100 µM.

For `CCN(CC)CC(=O)Nc1ccc(-c2ccc(NC(=O)CN(CC)CC)c(OC)c2)cc1OC`, the AC50 was > 100 µM (inactive) and the AC50 [1] was greater than 100 µM.

For `Cc1ccc(Cn2cnc3ccccc32)cc1`, the AC50 was > 100 µM (inactive).

`COCC#Cc1ccc2c(c1)O[C@H](CN(C)C(=O)c1ccccc1)[C@@H](C)CN([C@H](C)CO)S2(=O)=O` showed an AC50 [1] greater than 100 µM.

`Cc1cccc(NC(=O)c2c(C)nn(-c3ccccc3)c2Cl)c1` was tested, and the AC50 [1] was greater than 100 µM.

With `Cc1cccc(CSCC(=O)N2CCN(S(=O)(=O)c3ccccc3C#N)CC2)c1` the AC50 was > 100 µM (inactive).

In the case of `CCOCCCNC(=O)C(NC(=O)c1ccccc1O)c1ccc(C)cc1` (stereo not given), the AC50 [1] was greater than 100 µM.

With `Cc1ccc(-c2c(=O)n(O)c3ccccc3[n+]2[O-])cc1` the AC50 [2] was greater than 100 µM.

In the case of `COC(=O)C1CCN(C(=O)c2ccc(OC)c(S(=O)(=O)N3CCCc4ccccc43)c2)CC1`, the AC50 was > 100 µM (inactive).
